Patent US20140120167A1, “MULTIFUNCTIONAL CHEMO- AND MECHANICAL THERAPEUTICS” (WILLIAM MARSH RICE UNIVERSITY, priority 2012, published 2014)

How the values were obtained:
[1] = system: HN31 squamous carcinoma cells; test: Short-term complex viability (RRV, Trypan Blue exclusion and cell concentration) 72 h after treatment; format: cell-based, human; settings: for increase of cancer cell viability with plain (non-conjugated) nanocarriers compared with C225-conjugated carriers: GNP-C225 + PNB; for drug concentration required, drugs administered alone, to bring complex viability of cancer cells to the levels of PNB-enhanced release: no PNB
Procedure: Short term response in vitro to co-localized administration of drug nanocarriers, GNPs and laser pulses. We used EGFR-positive HN31 (cancer) cells and EGFR-negative NOM9 (normal) cells. […] After incubation, GNPs and drug carriers were washed off. […] PNB lifetime was obtained for individual cells. The short-term viability was evaluated 72 hours after the treatment of samples as a complex viability parameter RRV that included the viability level V1 (measured in % with Trypan Blue exclusion test) and the cell concentration C: RRV=C/C0*V1,*100% , where C0 is the cell concentration in the intact sample.
The ability of the PNB mechanism to overcome drug resistance and to reduce non-specific toxicity was evaluated with two common drugs and carrier types. Water-soluble doxorubicin was encapsulated into PEG-coated 90 nm Doxil liposomes that were conjugated with anti-EGFR antibody, C225 (L-Dox-C225). Non-soluble paclitaxel was loaded into 14 nm micelles conjugated to the same antibody (M-Ptx-C225). Each type of drug-loaded nanocarrier was administered separately with gold NP-C225 conjugates. Cancer (HN31) and normal (NOM9) cells were incubated identically with NP-C225 and nanocarriers. Drug doses were reduced to the level that provided relatively high viability of both cell types when treated with nanocarriers alone (without PNBs).
After incubation, NPs and nanocarriers were washed off, the cells were exposed to a single laser pulse (70 ps, 532 nm, 40 mJ cm^−2) and the PNB lifetime was obtained for individual cells. […] The cell concentration and viability were measured at 72 hours after the PNB generation as the complex viability parameter that was normalized by that in intact cells (FIG. 8). […] (FIGS. 8a and 8b).
Short-term therapeutic response to quadrapeutics and other treatments in vitro. […] The radiation treatment was administered within 60 min after PNB generation, i.e. when the intracellular concentration of the released drug was close to the maximal.

HN31 cells = test: Clonogenic test (surviving fraction), cancer cells; format: cell-based, human; settings: Dox 2 μg mL^−1 or Ptx 33 ng mL^−1 + GNP 2.4×10^10 mL^−1 + laser 45 mJ cm^−2 + X-rays 4 Gy 6 hours after PNB
NOM9 cells = test: Clonogenic test (surviving fraction), normal cells; settings: quadrapeutics, X-rays 4 Gy 6 hours after PNB
Text: Evaluation of the long-term therapeutic response with a clonogenic test. We used EGFR-positive HN31 cells and EGFR-negative NOM9 cells. […] Thus the cells were exposed only to the internalized drug during the follow-up generation of PNBs. One to six hours afterwards, a single dose of X-rays (0-25 Gy) was applied.
To evaluate their colony-forming ability, the cells were trypsinized and replaced in 100 mm dishes in a free medium immediately after the treatment of samples. After 10 days of cultivation, the cells were stained with 0.5% crystal violet in absolute ethanol, and colonies with more than 50 cells were counted under a microscope. Plating efficiency was defined as the percentage of cells seeded that grew into colonies under a specific culture condition of a given cell line. […] All experiments were performed three times.

Row | SMILES | fold higher concentration required for drug alone vs PNB-enhanced release [1] [fold] | increase of cancer cell viability with plain (non-conjugated) nanocarriers compared with C225-conjugated carriers [1] | drug concentration required, drugs administered alone, to bring complex viability of cancer cells to the levels of PNB-enhanced release [1] [µg/mL] | cancer cell growth (clonogenicity) after quadrapeutics, mode D+PNB+XR6 (HN31 cells) | viability of identically treated normal cells (NOM9 cells)
1 | COc1cccc2c1C(=O)c1c(O)c3c(c(O)c1C2=O)C[C@@](O)(C(=O)CO)C[C@@H]3O[C@H]1C[C@H](N)[C@H](O)[C@H](C)O1 [doxorubicin] | 18 | several-fold | 85 | – | –
2 | CC(=O)O[C@H]1C(=O)[C@@]2(C)[C@H]([C@H](OC(=O)c3ccccc3)[C@]3(O)C[C@H](OC(=O)[C@H](O)[C@@H](NC(=O)c4ccccc4)c4ccccc4)C(C)=C1C3(C)C)[C@]1(OC(C)=O)CO[C@@H]1C[C@@H]2O [paclitaxel] | 15 | several-fold | 1 | strong therapeutic effect | close to that of intact cells
